Data from patent US12709596B2, “Molecules” (ENA Respiratory Pty Ltd, priority 2019, dated 2026).

Columns and labels:
human TLR2 (hTLR2) = biological target: T1, human TLR2 (hTLR2) (Homo sapiens, UniProt O60603); test: HEK-BLUE-hTLR2 cell assay (NF-kB induced SEAP, read at 620 nm); format: cell-based; conditions: HEK-BLUE-hTLR2 cells, 16 hr
T1 construct: host or cells: HEK293 (HEK-BLUE-hTLR2)
Experimental: The potency of the compounds as activators of human TLR-2s is tested in an in vitro assay in HEK-BLUE-hTLR2 cells.
HEK-BLUE-hTLR2 cells are designed for studying the stimulation of human TLR2 (hTLR2) by monitoring the activation of NF-kB. HEK-BLUE-hTLR2 cells are obtained by co-transfection of the hTLR2 and SEAP (secreted embryonic alkaline phosphatase) reporter genes into HEK293 cells. Stimulation with a TLR2 ligand activates NF-kB which induces the production of SEAP.
HEK-BLUE-hTLR2 cells were purchased from InvivoGen (San Diego, CA, USA). Cells were grown in DMEM supplemented with 10% FCS, 100 U/ml penicillin, 100 ug/ml streptomycin and 2 mM L-glutamine, 100 μg/mL Normocin in the presence of selection antibiotic purchased from InvivoGen and passaged when 70% confluence was reached per manufacturer's recommendation. […]

[1] = Stability II: 9 day stability under accelerated conditions in EDTA/saline pH 5 by HPLC; format: physicochemical; conditions: 40° C./75% RH, 9 days
Experimental: Stability was measured using reversed phase HPLC with a UV detector analytical wavelength of 205 nm. Peak areas of each compound at the 9 day time point were compared with areas at time zero. Compound stability at day 9 was calculated as a percentage of the time zero peak area data. Compound stability was further assessed by comparison with a reference sample of the same compound. […] Thawed samples were sonicated and measured by HPLC.

T1 sequence (O60603 21-784): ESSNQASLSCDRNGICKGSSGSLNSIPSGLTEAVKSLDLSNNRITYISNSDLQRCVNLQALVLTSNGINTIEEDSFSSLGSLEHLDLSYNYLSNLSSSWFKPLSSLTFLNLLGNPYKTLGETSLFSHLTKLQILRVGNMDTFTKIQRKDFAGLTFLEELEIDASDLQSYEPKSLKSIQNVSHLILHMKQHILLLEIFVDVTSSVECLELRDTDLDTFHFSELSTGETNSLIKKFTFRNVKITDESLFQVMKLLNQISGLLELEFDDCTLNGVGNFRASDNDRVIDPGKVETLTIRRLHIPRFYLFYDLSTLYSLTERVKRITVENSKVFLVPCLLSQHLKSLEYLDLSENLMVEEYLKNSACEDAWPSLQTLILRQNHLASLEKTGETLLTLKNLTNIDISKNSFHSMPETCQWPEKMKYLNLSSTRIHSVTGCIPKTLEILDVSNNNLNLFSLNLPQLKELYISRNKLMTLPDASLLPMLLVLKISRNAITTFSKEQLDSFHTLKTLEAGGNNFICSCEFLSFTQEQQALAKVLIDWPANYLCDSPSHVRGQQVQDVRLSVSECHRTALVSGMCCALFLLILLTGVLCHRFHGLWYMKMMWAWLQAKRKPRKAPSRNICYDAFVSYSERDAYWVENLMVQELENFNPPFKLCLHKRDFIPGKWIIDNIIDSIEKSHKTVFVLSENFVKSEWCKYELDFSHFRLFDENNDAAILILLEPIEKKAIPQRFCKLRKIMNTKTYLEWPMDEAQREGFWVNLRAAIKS
T1 sequence (Q9Y2C9 32-796 partner): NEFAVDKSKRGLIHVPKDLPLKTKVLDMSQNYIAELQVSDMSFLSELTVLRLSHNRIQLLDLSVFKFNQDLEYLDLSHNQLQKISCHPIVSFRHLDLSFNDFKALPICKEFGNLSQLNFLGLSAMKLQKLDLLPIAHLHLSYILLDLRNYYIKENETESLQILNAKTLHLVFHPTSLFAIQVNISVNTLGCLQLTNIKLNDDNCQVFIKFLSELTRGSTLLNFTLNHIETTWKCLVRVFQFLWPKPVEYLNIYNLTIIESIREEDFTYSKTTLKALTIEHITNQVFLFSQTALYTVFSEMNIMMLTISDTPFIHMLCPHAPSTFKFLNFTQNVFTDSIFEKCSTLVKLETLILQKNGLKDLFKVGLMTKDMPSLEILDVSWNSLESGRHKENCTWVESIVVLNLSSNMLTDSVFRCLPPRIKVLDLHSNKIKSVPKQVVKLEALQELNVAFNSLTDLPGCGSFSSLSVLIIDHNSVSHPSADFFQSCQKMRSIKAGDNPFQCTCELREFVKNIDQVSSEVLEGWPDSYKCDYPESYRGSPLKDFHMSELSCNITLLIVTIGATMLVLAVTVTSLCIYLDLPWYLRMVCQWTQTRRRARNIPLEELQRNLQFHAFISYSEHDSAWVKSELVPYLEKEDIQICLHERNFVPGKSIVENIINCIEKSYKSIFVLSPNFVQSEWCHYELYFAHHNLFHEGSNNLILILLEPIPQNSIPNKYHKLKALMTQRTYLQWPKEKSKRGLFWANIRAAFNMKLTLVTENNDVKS

Compound: CCCCCCCCCCCCCCC(C)C(=O)OCC[C@H](CSC[C@H](N)C(=O)N[C@@H](CO)C(=O)NCCOCCOCCOCCOCCOCCOCCOCCOCCOCCOCCOCCOCCOCCOCCOCCOCCOCCOCCOCCOCCOCCOCCOCCOCCOCCOCCOCCOCCC(=O)NCC(N)=O)OC(=O)C(C)CCCCCCCCCCCCCC (stereo partly drawn) [Compound 36]
- TLR2 activity (HEK-BLUE-hTLR2 assay, FIG. 4) (human TLR2 (hTLR2)): significant activity at TLR2
- stability over the 9 day test period ([1]; pH 5 EDTA/saline): substantial stability
- stability under the accelerated conditions relative to comparator compound ([1]; versus compound (8) of WO2019/119067): superior stability
